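96-well plates; 48 h exposure; 5 concentrations. Endpoints by linear interpolation between flanking doses. Not reached: highest tested concentration assigned. GI50 marks 50% less growth. TGI is the concentration that stops growth completely.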
Legend:
Test in all cases: NCI tumour cell line growth inhibition, 48 h
DLD-1 colon = tested on: DLD-1 colon
HOP-18 NSCLC = tested on: HOP-18 NSCLC
LXFL 529 NSCLC = tested on: LXFL 529 NSCLC
RXF-631 renal = tested on: RXF-631 renal
MDA-N = tested on: MDA-N
DMS 114 small cell lung = tested on: DMS 114 small cell lung
XF 498 CNS = tested on: XF 498 CNS
P388 leukemia = tested on: P388 leukemia
P388/ADR leukemia = tested on: P388/ADR leukemia
SN12K1 renal = tested on: SN12K1 renal

SMILES	TGI (DLD-1 colon)	TGI (HOP-18 NSCLC)	TGI (LXFL 529 NSCLC)	TGI (MDA-N)	TGI (DMS 114 small cell lung)	TGI (XF 498 CNS)	other results
O=C(O)CN(c1ccccc1)S(=O)(=O)c1ccc(Cl)cc1	> 100 µM	> 100 µM	> 100 µM				TGI (RXF-631 renal): > 100 µM
COc1ccc(C(=O)C(Br)C(Br)C(=O)O)cc1 (stereo not given)				> 100 µM			
CC1=C(/C=C/C2=CC(=C\C(=O)O)/CC(C3=C(C)CCCC3(C)C)C2)C(C)(C)CCC1 (stereo not given)	24.5 µM	27 µM	26.8 µM		23 µM	27.4 µM	TGI (RXF-631 renal): 24.7 µM
O=C1NC(=O)C(=O)C(c2nc3ccccc3s2)C1=O	> 100 µM	> 100 µM	> 100 µM		> 100 µM	> 100 µM	
O=C(N/C(=C\c1ccc([N+](=O)[O-])cc1)c1nc2ccc(Cl)cc2[nH]1)c1ccccc1	31.3 µM		70.7 µM		> 100 µM	46.5 µM	
O=S1c2ccccc2N=C(c2ccc(Cl)cc2)CC1c1cccs1 (stereo not given)	24.9 µM	71.1 µM			39.5 µM		
CC1(C)N=C(/C=N/O)C(C)(C)N1O				> 100 µM			
CC1=C(C(=O)NCC(C)O)CC(C(=O)NCC(C)O)=C(C)N1 (stereo not given)				> 100 µM			
CCOC(=O)/C(C#N)=C\C=C1/C=CNC2=NCCN21	> 100 µM	> 100 µM	> 100 µM		> 100 µM	> 100 µM	
NCC1OC(n2cnc3c(=O)[nH]c(N)nc32)C(O)C1O (stereo not given)				> 100 µM			
Cc1ccc(NC(=O)CC/C(CC(=O)c2ccc(Cl)cc2)=N\NC(=O)C(=O)NN)cc1C	> 100 µM	> 100 µM	> 100 µM		> 100 µM	> 100 µM	
O=C(O)CCSC(=O)Nc1cccc([N+](=O)[O-])c1	> 100 µM		> 100 µM		> 100 µM		
C[C@]12CC(C#N)C(=O)C(O)=C1CC[C@@H]1C2CC[C@@]2(C)C1CC[C@@H]2O (stereo not given in full)	> 100 µM		> 100 µM		> 100 µM	> 100 µM	
N#Cc1ccc(-c2nc3ccc(Cl)cc3[nH]2)cc1				> 100 µM			
CCOC(=O)C#Cc1ccc([N+](=O)[O-])cc1				10.5 µM			
CC1OC(O[C@H]2/C=C/C=C/C=C/C=C/C=C/C=C/C=C/[C@H](C)[C@@H](O)[C@@H](C)[C@H](C)OC(=O)C[C@H](O)C[C@H](O)CC[C@@H](O)[C@H](O)C[C@H](O)C[C@]3(O)C[C@H](O)[C@@H](C(=O)O)[C@H](C2)O3)C(O)C(N)C1O (stereo not given in full)				24.4 µM			
COC1CC2C=CC3C4OC2(/C(C)=C/C(C)C(C(C)O)OC1=O)C3C(O)C(C)C4OC(=O)c1ccc[nH]1 (stereo not given)				> 100 µM			
CC(=O)NC1C(OCc2ccccc2)OC(COC(=O)CCCCCNc2ccc([N+](=O)[O-])c3[nH]c4ccc(O)cc4c(=O)c23)C(O)C1OC(C)C(=O)N[C@@H](C)C(=O)N[C@H](CCC(=O)OCc1ccccc1)C(N)=O (stereo not given in full)	10 µM	10.6 µM	3.85 µM				TGI (RXF-631 renal): 5.35 µM
C[C@@H](NC1CCC[C@@H]1O)c1ccccc1 (stereo not given in full)	> 100 µM	> 100 µM	> 100 µM		> 100 µM	> 100 µM	
C=CCCC(C)N(C(=O)OC(C)(C)C)S(=O)(=O)c1ccc(C)cc1 (stereo not given)	> 100 µM		> 100 µM			> 100 µM	
COc1cc2ccnc3c2c(c1OC)CC1CC(O)C(OC)CC31 (stereo not given)	> 100 µM	> 100 µM	> 100 µM		> 100 µM	> 100 µM	
CN(C1=NS(=O)(=O)N=C(N(C)c2ccccc2)O1)c1ccccc1				32.6 µM			
CN(C)Cc1cccc(CN(C)C)[c]1[Sn]([Br])([c]1ccccc1)[c]1ccccc1				38.8 µM			GI50 (MDA-N): 16.6 µM
O=C1CC2C(=O)C1C(C(=O)O)C2C(=O)O (stereo not given)				> 100 µM			

SMILES	TGI (DLD-1 colon)	TGI (HOP-18 NSCLC)	TGI (LXFL 529 NSCLC)	TGI (MDA-N)	TGI (DMS 114 small cell lung)	TGI (XF 498 CNS)	other results
COc1ccc(-c2nc(N)c3ncn(C4OC(CO)C(O)C4O)c3n2)cc1 (stereo not given)				> 100 µM			
NNC(=O)CCC(=O)Nc1ccc(Cl)cc1Cl	> 100 µM		> 100 µM		> 100 µM	> 100 µM	TGI (RXF-631 renal): > 100 µM
CC(C)Cc1ccc(C(C)/C=C2\CCC(CN3CCCC3)C2=O)cc1 (stereo not given)	6.67 µM	33.4 µM	4.77 µM		12.2 µM	22 µM	TGI (RXF-631 renal): 49.9 µM
COc1cc([C@@H]2c3cc4c(cc3[C@@H](NCc3ccc(C#N)cc3)C3COC(=O)[C@@H]32)OCO4)cc(OC)c1O (stereo not given in full)	5.33 µM	> 100 µM	50.2 µM		4.98 µM	2.85 µM	
CCCC1C(=O)C(CC)Cc2c(OC)ccc(OC)c21 (stereo not given)	> 100 µM		> 100 µM			> 100 µM	TGI (RXF-631 renal): > 100 µM
c1ccc(/N=C2\c3ccccc3CN2c2ccccn2)nc1				> 100 µM			
CCCCCCCC(=O)OCC1OC(n2cc(F)c(=O)[nH]c2=O)C(NC(=O)OCc2ccccc2)C(OC(=O)CCCCCCC)C1O (stereo not given)			> 100 µM		> 100 µM		
CC([C@H]1CCC2C3CCC4CC5(CC[C@]4(C)C3CC[C@@]21C)c1ccccc1C(=O)N5C)N(C)C (stereo not given in full)	> 100 µM	> 100 µM	> 100 µM		> 100 µM		
O=C(c1cc2c(C(F)(F)F)onc2c2ccccc12)C(F)(F)F	> 100 µM	> 100 µM	> 47 µM		10.9 µM		TGI (RXF-631 renal): 80.1 µM
CC(=O)O[C@H]1CCC2[C@@H]3CCC4Nc5c(cnn5-c5ccccc5)C[C@]4(C)C3CC[C@@]21C (stereo not given in full)	> 100 µM	86.5 µM	58.5 µM		58.3 µM	18.8 µM	TGI (RXF-631 renal): 42.2 µM
CCC(O)(c1ccc(OC)cc1)C(c1ccc(OCc2ccccc2)cc1)c1ccc(OCc2ccccc2)cc1 (stereo not given)	> 100 µM		> 100 µM		> 100 µM	> 100 µM	TGI (RXF-631 renal): > 100 µM
O=C(COc1ccc(Cl)cc1)N1N=C(c2ccc([N+](=O)[O-])o2)CC1(O)c1ccccc1 (stereo not given)	> 100 µM					22.3 µM	TGI (RXF-631 renal): 24.9 µM
COc1cc2ccc(/C(C)=N/OC(C)=O)cc2cc1OC		> 100 µM	> 100 µM		> 100 µM	> 100 µM	TGI (RXF-631 renal): > 100 µM
O=C(CN1CCOCC1)CC(O)(C(F)(F)F)C(F)(F)F				> 100 µM			
NC1=NC(c2ccccc2)CC(c2cc(Cl)cc(Br)c2O)=N1 (stereo not given)	25.8 µM	37.4 µM	31.3 µM		27.1 µM	33.9 µM	TGI (P388 leukemia): > 20.7 µM; TGI (P388/ADR leukemia): > 27.8 µM; TGI (RXF-631 renal): 39.8 µM; TGI (SN12K1 renal): 28.3 µM
CC(=O)NNC(=S)/N=C/c1c(O)cc(C)oc1=O				> 100 µM			
C/C(=N\NS(=O)(=O)c1ccc(C)cc1)c1c(O)cc(C)oc1=O	> 100 µM	> 100 µM	> 100 µM				
Cc1[nH]c2ccccc2c1C1CC(=O)NC1=O (stereo not given)	> 100 µM				> 100 µM		
CC(Oc1ccc(OCC2CCCCC2)cc1)C(=O)O (stereo not given)	> 100 µM	> 100 µM	> 100 µM		> 100 µM	> 100 µM	
Cc1ccc(C(=O)CCC2C(=O)CC(C)(C)CC2=O)cc1				> 100 µM			
CCN(CC)CCOC(=O)/C(=C/c1ccc(OC)cc1)c1cc(OC)c(OC)c(OC)c1	> 100 µM	> 100 µM	23.1 µM		22.2 µM		TGI (RXF-631 renal): > 100 µM
CC(C)c1cccc(C(C)C)c1N=C(N)C#N	> 65.6 µM	> 100 µM	> 100 µM		> 59.2 µM	> 100 µM	TGI (RXF-631 renal): > 100 µM
CCN(CC)C(=O)CNC(=O)OC(C)(C)C	> 100 µM				> 100 µM		

From PubChem BioAssay (NCI)
